Test results taken from patent US4368194A, “Pharmacologically active amine boranes” (The United States of America as represented by the …, priority 1981, dated 1983).
Like-named read-outs stand apart in the source and are kept apart here.

How the values were obtained:
[1] = tested on: carrageenan induced edema in mouse foot pads; assay: Anti-inflammatory screen (carrageenan induced foot edema); format: in vivo, mice; conditions: for Anti-inflammatory Screen: mice
Protocol: CF1 male mice (about 30 g) were administered test drugs at 10 mg/kg in 0.05% polysorbate .80-water intraperitoneally 3 hr and 30 min prior to 0.05 ml of 2% carrageenan in 0.9% saline injected into the plantar surface of the right hind foot. Saline injected into the left hind foot served as a base line. After 3 hr, both feet were excised at the tibiotarsal (ankle) joint according to the modified (Roszkowski et al., J. Pharm. Exp. Ther., 179, 114 1971) method of Winter, resulting in an 87 mg net increase in the weight of the control animals' feet.

CF1 male mice = assay: Writhing reflex (acetic acid); format: in vivo; conditions: for Writhing Reflex: 20 mg/kg intraperitoneally, mice
Protocol: CF1 male mice were administered test drugs at 20 mg/kg intraperitoneally 20 min (see Hendershat et al., J. Pharmacol Exp. Ther. 125, 237 1959) prior to the administration of 0.5 ml of 0.6% acetic acid (Vingar et al., European J. PHarmacol, 37, 23 1976). After 5 min the number of stretches, characterized by repeated contractures of the abdominal musculature accompanied by extension of the hind limbs, was counted for the next 10 min. The control mice had 78 stretch reflexes per 10 min.

Acid phosphatase [2] = assay: Lysosomal free acid phosphatase activity, liver homogenate; format: biochemical, rats; conditions: 5 μmoles, in vitro; 20 min
Protocol: (§1) Lysosomal enzymatic assays - Sprague Dawley rats (about 160 g) were sacrificed, the liver excised, and a 10% homogenate (4x) in 0.25 M sucrose and 0.001 M (ethylenedinitrilo) tetra acetic acid, ph 7.2 was prepared.
(§2) Acid phosphatase activity (Gianetto et al., Biochem J., 59, 433 1955) was carried out by incubating with 0.1 Mβ-glycerol phosphate in 0.1 M acetate, pH 5.0 with 5 μmoles of test drugs in 1% carboxymethylcellulose (CMC) for 20 min with liver homogenate and 60 min with resuspended PMNs. Lysosome enzymes were released by 0.02% alkyl phenoxy polyethoxy ethanol-100 to obtain the total enzymatic activity. The reaction was stopped with 10% trichloroacetic acid and the solution centrifuged. Aliquots of the supernatant were assayed for inorganic phophate content by the method of Chen et al., Anal Chem., 28, 1756 (1956). Percent free acid phosphatase was calculated. Cathepsin activity was determined in an analagous manner except the substrate used was 2% azocasein (Schleuning et al., Methods in Enzymology, XLV, 330 1976) in 0.1 M acetate buffer pH 5.0. The supernatant was assayed for acid soluble peptide fragments at 366 nm. Percent free cathepsin activity was calculated.

Cathepsin [3] = assay: Lysosomal free cathepsin activity, liver homogenate; format: biochemical, rats; conditions: 5 μmoles, in vitro; 20 min
Protocol: as §1, §2

Acid phosphatase [4] = assay: Lysosomal free acid phosphatase activity, PMNs; format: cell-based; conditions: 5 μmoles, in vitro; 60 min
Protocol: (§3) Polymorphonuclear neutrophils (PMNs) were collected from the peritoneal cavity four hr after the injection of 35 ml of 0.5% oyster glycogen in isotonic saline (Orange et al., J. Exp. Med., 127, 767 1968). The PMNs were centrifuged down at 800 g for 20 min, washed, and resuspended in minumen essential medium (MEM) with 10% fetal calf serum pH 7.4.
as §2

Cathepsin [5] = assay: Lysosomal free cathepsin activity, PMNs; format: cell-based; conditions: 5 μmoles; for PMNs % Free Cathespin Activity, pH5: in vitro, 60 min
Protocol: as §3, §2

cAMP levels in PMNs = assay: Cyclic-3',5'-adenosine monophosphate levels (cAMP) in PMNs; format: cell-based; conditions: 1 h
Protocol: as §3
Isolated PMNs were incubated with test drugs at 5μ moles for 1 hr at 37° C. in MEM at pH 7.4. The reaction was stopped with 6% trichloroacetic acid. The cyclic-3',5'-adenosine monophosphate levels were determined by the radioimmunoassay of Gilman, Proc. Natl. Acad. Sci. (USA), 67, 305 (1970), using 3H(G)-cyclic-3',5'-adenosine monophosphate (39.8 Cu/m mol). Results were calculated in p mole/10^7 PMNs cells.

[6] = target: T1, prostaglandin synthetase from beef seminal vesicle (Bos taurus, UniProt O62664); assay: Prostaglandin synthetase activity; format: biochemical; conditions: 1 h; 10^-6 M; read-out: Prostaglandin Synthesis
T1 construct: purchased; host or cells: beef seminal vesicle
T1 sequence (O62664 25-600): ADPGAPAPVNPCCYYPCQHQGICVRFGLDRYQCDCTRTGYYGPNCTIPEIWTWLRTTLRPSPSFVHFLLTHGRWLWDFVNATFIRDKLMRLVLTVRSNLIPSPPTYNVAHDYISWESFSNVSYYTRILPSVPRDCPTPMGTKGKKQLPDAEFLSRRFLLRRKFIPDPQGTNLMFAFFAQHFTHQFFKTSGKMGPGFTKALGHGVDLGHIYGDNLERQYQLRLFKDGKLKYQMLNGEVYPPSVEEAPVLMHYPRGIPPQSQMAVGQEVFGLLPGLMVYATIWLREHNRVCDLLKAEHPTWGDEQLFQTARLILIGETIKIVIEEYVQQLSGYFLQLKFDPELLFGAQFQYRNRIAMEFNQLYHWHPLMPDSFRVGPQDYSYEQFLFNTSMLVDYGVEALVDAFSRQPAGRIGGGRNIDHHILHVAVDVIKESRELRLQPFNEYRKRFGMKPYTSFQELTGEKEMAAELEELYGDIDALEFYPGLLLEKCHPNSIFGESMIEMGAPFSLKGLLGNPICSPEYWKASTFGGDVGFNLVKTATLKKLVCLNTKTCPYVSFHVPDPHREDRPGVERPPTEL
Protocol: After 1 hr at 37° C. the reaction was stopped with 1 N HCl and extracted with ethyl ether and evaporated. […] The plates were dried and developed in iodine vapor and with the use of prostaglandin standards the appropriate areas were scraped and counted for ^3 H content. Indometacin was used as a standard at 10^-4 M concentration. Test drugs were used at 10^-6 M.

liver mitochondria [7] = assay: Oxidative phosphorylation, succinate as substrate; format: biochemical, rats; conditions: 5 μmoles; for Oxidative Phosphorylation Succinate State 3: ADP stimulated respiration; for Oxidative Phosphorylation Succinate State 4: basal respiration
Protocol: (§4) Basal and adenosine diphosphate stimulated respiration on 10% liver homogenates was measured using succinate or αketoglutarate as substrate. See Glatt, et al., supra. The reaction vessel contained sucrose 55μ moles, KCl 22μ moles, K2 HPO4 22μ moles, test compounds at 5μ moles in 1% CMC and sodium succinate 90μ moles or αketoglutarate 60μ moles in a total volume of 1.8 ml. […] The rate of respiration was calculated at μl of O2 consumed/hr/mg wet weight of liver.

liver mitochondria [8] = assay: Oxidative phosphorylation, α-ketoglutarate as substrate; format: biochemical, rats; conditions: 5 μmoles; for Oxidative Phosphorylation α Ketoglutarate State 3: ADP stimulated respiration; for Oxidative Phosphorylation α Ketoglutarate State 4: basal respiration
Protocol: as §4

in vivo = conditions: mouse
[9] = pH 7.4, 5 μmoles, in vitro, read-out: PMNs cAMP Level

O=C(O)[BH2-][n+]1ccccc1 [XVI, Pyridine-carboxyborane]
Anti-inflammatory Screen ([1]; 1/3 dose (of 10 mg/kg × 2)): 74 % Control
Writhing Reflex (CF1 male mice): 53 % Control
Liver % Free Acid Phosphatase Activity, pH5 (Acid phosphatase [2]): 77 ± 8 % Control
Liver % Free Cathepsin Activity, pH5 (Cathepsin [3]): 58 ± 4 % Control
PMNs % Free Acid Phosphatase Activity, pH5 (Acid phosphatase [4]): 100 ± 5 % Control
PMNs % Free Cathespin Activity, pH5 (Cathepsin [5]): 31 ± 4 % Control
activity at 5 µmol (cAMP levels in PMNs; pH 7.4, read-out: PMNs cAMP Level): 100%
activity at 1 µM [6]: 76 ± 5%
Oxidative Phosphorylation Succinate State 3 (liver mitochondria [7]): 75 ± 15 % Control
Oxidative Phosphorylation Succinate State 4 (liver mitochondria [7]): 110 ± 13 % Control
Oxidative Phosphorylation α Ketoglutarate State 3 (liver mitochondria [8]): 63 ± 15 % Control
Oxidative Phosphorylation α Ketoglutarate State 4 (liver mitochondria [8]): 109 ± 30 % Control

[BH3-][NH2+]C(C)(C)C [Compound I, (CH3)3 CNH2.BH3]
Anti-inflammatory Screen ([1]; 10 mg/kg × 2 intraperitoneally): 41 % Control
inhibition of the carrageenan induced edema in mouse foot pads ([1]; text summary of Table II): at least 50%
Liver % Free Acid Phosphatase Activity, pH5 (Acid phosphatase [2]): 77 ± 4 % Control
Liver % Free Cathepsin Activity, pH5 (Cathepsin [3]): 58 ± 5 % Control
PMNs % Free Acid Phosphatase Activity, pH5 (Acid phosphatase [4]): 100 ± 9 % Control
PMNs % Free Cathespin Activity, pH5 (Cathepsin [5]): 100 ± 4 % Control
activity at 5 µmol (cAMP levels in PMNs; [9]): 58%
activity at 1 µM [6]: 100 ± 3%
Oxidative Phosphorylation Succinate State 3 (liver mitochondria [7]): 63 ± 8 % Control
Oxidative Phosphorylation Succinate State 4 (liver mitochondria [7]): 118 ± 11 % Control
uncoupling with α-ketoglutarate as substrate (liver mitochondria [8]): uncoupling
Oxidative Phosphorylation α Ketoglutarate State 3 (liver mitochondria [8]): 63 ± 14 % Control
Oxidative Phosphorylation α Ketoglutarate State 4 (liver mitochondria [8]): 160 ± 35 % Control
LD50 (in vivo): 16 mg/kg

CCNC(=O)[BH2-][N+](C)(C)C [VII, (CH3)3 N.BH2 CON(H)CH2 CH3]
Anti-inflammatory Screen ([1]; 10 mg/kg × 2 intraperitoneally): 63 % Control
Writhing Reflex (CF1 male mice): 29 % Control
inhibition of the writhing reflex (CF1 male mice; text summary of Table II): 70%
Liver % Free Acid Phosphatase Activity, pH5 (Acid phosphatase [2]): 78 ± 7 % Control
PMNs % Free Acid Phosphatase Activity, pH5 (Acid phosphatase [4]): 100 ± 2 % Control
PMNs % Free Cathespin Activity, pH5 (Cathepsin [5]): 22 ± 5 % Control
activity at 5 µmol (cAMP levels in PMNs; [9]): 98%
activity at 1 µM [6]: 100 ± 7%
Oxidative Phosphorylation Succinate State 3 (liver mitochondria [7]): 74 ± 9 % Control
Oxidative Phosphorylation Succinate State 4 (liver mitochondria [7]): 114 ± 13 % Control
uncoupling with α-ketoglutarate as substrate (liver mitochondria [8]): uncoupling
Oxidative Phosphorylation α Ketoglutarate State 3 (liver mitochondria [8]): 45 ± 18 % Control
Oxidative Phosphorylation α Ketoglutarate State 4 (liver mitochondria [8]): 113 ± 37 % Control
LD50 (in vivo): 320 mg/kg

CCOC(=O)[BH2-][N+](C)(C)C [XVIII, (CH3)3 N.BH2 COOCH2 CH3]
Anti-inflammatory Screen ([1]; 10 mg/kg × 2 intraperitoneally): 87 % Control
Writhing Reflex (CF1 male mice): 106 % Control
inhibition of PMN cathepsin activity (Cathepsin [5]): at least 82%
PMNs % Free Cathespin Activity, pH5 (Cathepsin [5]): 16 ± 3 % Control
Oxidative Phosphorylation Succinate State 3 (liver mitochondria [7]): 61 ± 19 % Control
Oxidative Phosphorylation Succinate State 4 (liver mitochondria [7]): 119 ± 18 % Control
Oxidative Phosphorylation α Ketoglutarate State 3 (liver mitochondria [8]): 54 ± 8 % Control
Oxidative Phosphorylation α Ketoglutarate State 4 (liver mitochondria [8]): 126 ± 51 % Control
LD50 (in vivo): > 500 mg/kg
